Experimental data from ChEMBL document CHEMBL1255475, “Mutant prevention concentrations of four carbapenems against gram-negative rods” (2010).
≈ marks a conversion by molar mass, not a printed value.

Tests used:
Pseudomonas aeruginosa [1] = assay: Ratio of mutant prevention concentration to minimum Inhibitory concentration for Pseudomonas aeruginosa P352; type: functional
Pseudomonas aeruginosa [2] = assay: Ratio of mutant prevention concentration to minimum Inhibitory concentration for Pseudomonas aeruginosa P319; type: functional
Acinetobacter baumannii [3] = assay: Ratio of mutant prevention concentration to minimum Inhibitory concentration for Acinetobacter baumannii A929; type: functional
Acinetobacter baumannii [4] = assay: Ratio of mutant prevention concentration to minimum Inhibitory concentration for Acinetobacter baumannii A897; type: functional
Acinetobacter baumannii [5] = assay: Ratio of mutant prevention concentration to minimum Inhibitory concentration for Acinetobacter baumannii A885; type: functional
Acinetobacter baumannii [6] = assay: Ratio of mutant prevention concentration to minimum Inhibitory concentration for Acinetobacter baumannii A931; type: functional
Acinetobacter baumannii [7] = assay: Ratio of mutant prevention concentration to minimum Inhibitory concentration for Acinetobacter baumannii A890; type: functional
Acinetobacter baumannii [8] = assay: Ratio of mutant prevention concentration to minimum Inhibitory concentration for Acinetobacter baumannii A848; type: functional
Pseudomonas aeruginosa [9] = assay: Ratio of mutant prevention concentration to minimum Inhibitory concentration for Pseudomonas aeruginosa P337; type: functional
Pseudomonas aeruginosa [10] = assay: Ratio of mutant prevention concentration to minimum Inhibitory concentration for Pseudomonas aeruginosa P363; type: functional
Acinetobacter baumannii [11] = assay: Ratio of mutant prevention concentration to minimum Inhibitory concentration for Acinetobacter baumannii A901; type: functional
Klebsiella pneumoniae [12] = assay: Antibacterial activity against beta-lactamase-positive ESBL-negative Klebsiella pneumoniae E509 after 24 hrs by agar dilution method; type: functional; conditions: E509, 24 h
Pseudomonas aeruginosa [13] = assay: Antibacterial activity against Pseudomonas aeruginosa P335 after 24 hrs by agar dilution method; conditions: P335, 24 h
Pseudomonas aeruginosa [14] = assay: Antibacterial activity against Pseudomonas aeruginosa P326 after 24 hrs by agar dilution method; conditions: P326, 24 h
Klebsiella pneumoniae [15] = assay: Antibacterial activity against beta-lactamase-negative Klebsiella pneumoniae E360 after 24 hrs by agar dilution method; type: functional; conditions: E360, 24 h
Acinetobacter baumannii [16] = assay: Antibacterial activity against Acinetobacter baumannii A890 after 24 hrs by agar dilution method; type: functional; conditions: A890, 24 h
Pseudomonas aeruginosa [17] = assay: Antibacterial activity against Pseudomonas aeruginosa P352 after 24 hrs by agar dilution method; type: functional; conditions: P352, 24 h
Escherichia coli [18] = assay: Antibacterial activity against beta-lactamase-negative Escherichia coli E408 after 24 hrs by agar dilution method; conditions: E408, 24 h
Klebsiella pneumoniae [19] = assay: Antibacterial activity against beta-lactamase-positive ESBL-positive Klebsiella pneumoniae E475 after 24 hrs by agar dilution method; type: functional; conditions: E475, 24 h
Escherichia coli [20] = assay: Antibacterial activity against beta-lactamase-negative Escherichia coli E347 after 24 hrs by agar dilution method; conditions: E347, 24 h
Pseudomonas aeruginosa [21] = assay: Antibacterial activity against Pseudomonas aeruginosa P319 after 24 hrs by agar dilution method; type: functional; conditions: P319, 24 h
Acinetobacter baumannii [22] = assay: Antibacterial activity against Acinetobacter baumannii A928 after 24 hrs by agar dilution method; type: functional; conditions: A928, 24 h
Pseudomonas aeruginosa [23] = assay: Antibacterial activity against Pseudomonas aeruginosa P363 after 24 hrs by agar dilution method; conditions: P363, 24 h
Escherichia coli [24] = assay: Antibacterial activity against beta-lactamase-negative Escherichia coli E425 after 24 hrs by agar dilution method; conditions: E425, 24 h
Acinetobacter baumannii [25] = assay: Antibacterial activity against Acinetobacter baumannii A912 after 24 hrs by agar dilution method; type: functional; conditions: A912, 24 h
Klebsiella pneumoniae [26] = assay: Antibacterial activity against beta-lactamase-positive ESBL-negative Klebsiella pneumoniae E472 after 24 hrs by agar dilution method; type: functional; conditions: E472, 24 h
Pseudomonas aeruginosa [27] = assay: Antibacterial activity against Pseudomonas aeruginosa P328 after 24 hrs by agar dilution method; type: functional; conditions: P328, 24 h
Klebsiella pneumoniae [28] = assay: Antibacterial activity against beta-lactamase-negative Klebsiella pneumoniae E359 after 24 hrs by agar dilution method; type: functional; conditions: E359, 24 h
Klebsiella pneumoniae [29] = assay: Antibacterial activity against beta-lactamase-positive ESBL-positive Klebsiella pneumoniae E476 after 24 hrs by agar dilution method; type: functional; conditions: E476, 24 h
Escherichia coli [30] = assay: Antibacterial activity against beta-lactamase-positive ESBL-positive Escherichia coli E458 after 24 hrs by agar dilution method; conditions: E458, 24 h
Acinetobacter baumannii [31] = assay: Antibacterial activity against Acinetobacter baumannii A891 after 24 hrs by agar dilution method; type: functional; conditions: A891, 24 h
Klebsiella pneumoniae [32] = assay: Antibacterial activity against beta-lactamase-positive ESBL-positive Klebsiella pneumoniae E478 after 24 hrs by agar dilution method; type: functional; conditions: E478, 24 h
Acinetobacter baumannii [33] = assay: Antibacterial activity against Acinetobacter baumannii A908 after 24 hrs by agar dilution method; type: functional; conditions: A908, 24 h
Klebsiella pneumoniae [34] = assay: Antibacterial activity against beta-lactamase-positive ESBL-negative Klebsiella pneumoniae E477 after 24 hrs by agar dilution method; type: functional; conditions: E477, 24 h
Escherichia coli [35] = assay: Antibacterial activity against beta-lactamase-positive ESBL-positive Escherichia coli E456 after 24 hrs by agar dilution method; conditions: E456, 24 h
Klebsiella pneumoniae [36] = assay: Antibacterial activity against beta-lactamase-negative Klebsiella pneumoniae E419 after 24 hrs by agar dilution method; type: functional; conditions: E419, 24 h
Pseudomonas aeruginosa [37] = assay: Antibacterial activity against Pseudomonas aeruginosa P365 after 24 hrs by agar dilution method; conditions: P365, 24 h
Escherichia coli [38] = assay: Antibacterial activity against beta-lactamase-positive ESBL-positive Escherichia coli E465 after 24 hrs by agar dilution method; conditions: E465, 24 h
Pseudomonas aeruginosa [39] = assay: Antibacterial activity against Pseudomonas aeruginosa P340 after 24 hrs by agar dilution method; conditions: P340, 24 h
Klebsiella pneumoniae [40] = assay: Antibacterial activity against beta-lactamase-positive ESBL-negative Klebsiella pneumoniae E474 after 24 hrs by agar dilution method; type: functional; conditions: E474, 24 h
Escherichia coli [41] = assay: Antibacterial activity against beta-lactamase-positive ESBL-positive Escherichia coli E450 after 24 hrs by agar dilution method; conditions: E450, 24 h
Pseudomonas aeruginosa [42] = assay: Antibacterial activity against Pseudomonas aeruginosa P322 after 24 hrs by agar dilution method; conditions: P322, 24 h
Escherichia coli [43] = assay: Antibacterial activity against beta-lactamase-negative Escherichia coli E346 after 24 hrs by agar dilution method; conditions: E346, 24 h
Pseudomonas aeruginosa [44] = assay: Antibacterial activity against Pseudomonas aeruginosa P341 after 24 hrs by agar dilution method; conditions: P341, 24 h
Acinetobacter baumannii [45] = assay: Antibacterial activity against Acinetobacter baumannii A898 after 24 hrs by agar dilution method; type: functional; conditions: A898, 24 h
Escherichia coli [46] = assay: Antibacterial activity against beta-lactamase-positive ESBL-negative Escherichia coli E430 after 24 hrs by agar dilution method; conditions: E430, 24 h
Pseudomonas aeruginosa [47] = assay: Antibacterial activity against Pseudomonas aeruginosa P334 after 24 hrs by agar dilution method; conditions: P334, 24 h
Acinetobacter baumannii [48] = assay: Antibacterial activity against Acinetobacter baumannii A884 after 24 hrs by agar dilution method; type: functional; conditions: A884, 24 h
Klebsiella pneumoniae [49] = assay: Antibacterial activity against beta-lactamase-negative Klebsiella pneumoniae E417 after 24 hrs by agar dilution method; type: functional; conditions: E417, 24 h
Acinetobacter baumannii [50] = assay: Antibacterial activity against Acinetobacter baumannii A910 after 24 hrs by agar dilution method; type: functional; conditions: A910, 24 h
Pseudomonas aeruginosa [51] = assay: Antibacterial activity against Pseudomonas aeruginosa P320 after 24 hrs by agar dilution method; conditions: P320, 24 h
Escherichia coli [52] = assay: Antibacterial activity against beta-lactamase-negative Escherichia coli E350 after 24 hrs by agar dilution method; conditions: E350, 24 h
Acinetobacter baumannii [53] = assay: Antibacterial activity against Acinetobacter baumannii A865 after 24 hrs by agar dilution method; type: functional; conditions: A865, 24 h

C[C@@H](O)[C@H]1C(=O)N2C(C(=O)O)=C(S[C@@H]3CN[C@H](CNS(N)(=O)=O)C3)[C@H](C)[C@H]12 [DORIPENEM] showed a Ratio (Pseudomonas aeruginosa [1]) of 2, a Ratio (Pseudomonas aeruginosa [2]) of 4 and a Ratio (Acinetobacter baumannii [3]) of 2. It also gave a Ratio (Acinetobacter baumannii [4]) of 2, a Ratio (Acinetobacter baumannii [5]) of 2 and a Ratio (Acinetobacter baumannii [6]) of 2. It also gave a Ratio (Acinetobacter baumannii [7]) of 4, a Ratio (Acinetobacter baumannii [8]) of 2 and a Ratio (Pseudomonas aeruginosa [9]) of 8. It also gave a Ratio (Pseudomonas aeruginosa [10]) of 16 and a Ratio (Acinetobacter baumannii [11]) of 2.

In the case of C[C@@H](O)[C@H]1C(=O)N2C(C(=O)O)=C(SCCNC=N)C[C@H]12 [IMIPENEM ANHYDROUS], the MIC (Klebsiella pneumoniae [12]) is reported as 8 µg/mL (≈ 26.7 µM), the MIC (Pseudomonas aeruginosa [13]) is reported as 1 µg/mL (≈ 3.34 µM) and the MIC (Pseudomonas aeruginosa [14]) is reported as 16 µg/mL (≈ 53.4 µM). The MIC (Klebsiella pneumoniae [15]) was 0.25 µg/mL (≈ 0.835 µM), the MIC (Acinetobacter baumannii [16]) was 0.5 µg/mL (≈ 1.67 µM) and the MIC (Pseudomonas aeruginosa [17]) was 8 µg/mL (≈ 26.7 µM). It also gave an MIC (Escherichia coli [18]) of 0.125 µg/mL (≈ 0.418 µM), an MIC (Klebsiella pneumoniae [19]) of 4 µg/mL (≈ 13.4 µM) and an MIC (Escherichia coli [20]) of 0.25 µg/mL (≈ 0.835 µM). It also gave an MIC (Pseudomonas aeruginosa [21]) of 8 µg/mL (≈ 26.7 µM), an MIC (Acinetobacter baumannii [22]) of 0.5 µg/mL (≈ 1.67 µM) and an MIC (Pseudomonas aeruginosa [23]) of 2 µg/mL (≈ 6.68 µM). For the same compound, the MIC (Escherichia coli [24]) was 0.25 µg/mL (≈ 0.835 µM), the MIC (Acinetobacter baumannii [25]) was 2 µg/mL (≈ 6.68 µM) and the MIC (Klebsiella pneumoniae [26]) was 8 µg/mL (≈ 26.7 µM). For the same compound, the MIC (Pseudomonas aeruginosa [27]) was 8 µg/mL (≈ 26.7 µM), the MIC (Klebsiella pneumoniae [28]) was 0.5 µg/mL (≈ 1.67 µM) and the MIC (Klebsiella pneumoniae [29]) was 8 µg/mL (≈ 26.7 µM). For the same compound, the MIC (Escherichia coli [30]) was 0.125 µg/mL (≈ 0.418 µM), the MIC (Acinetobacter baumannii [31]) was 0.5 µg/mL (≈ 1.67 µM) and the MIC (Klebsiella pneumoniae [32]) was 4 µg/mL (≈ 13.4 µM). It also gave an MIC (Acinetobacter baumannii [33]) of 0.25 µg/mL (≈ 0.835 µM), an MIC (Klebsiella pneumoniae [34]) of 4 µg/mL (≈ 13.4 µM) and an MIC (Escherichia coli [35]) of 0.125 µg/mL (≈ 0.418 µM). For the same compound, the MIC (Klebsiella pneumoniae [36]) was 0.5 µg/mL (≈ 1.67 µM), the MIC (Pseudomonas aeruginosa [37]) was 2 µg/mL (≈ 6.68 µM) and the MIC (Escherichia coli [38]) was 0.25 µg/mL (≈ 0.835 µM). The MIC (Pseudomonas aeruginosa [39]) was 0.5 µg/mL (≈ 1.67 µM), the MIC (Klebsiella pneumoniae [40]) was 8 µg/mL (≈ 26.7 µM) and the MIC (Escherichia coli [41]) was 0.125 µg/mL (≈ 0.418 µM). The MIC (Pseudomonas aeruginosa [42]) was 4 µg/mL (≈ 13.4 µM), the MIC (Escherichia coli [43]) was 0.125 µg/mL (≈ 0.418 µM) and the MIC (Pseudomonas aeruginosa [44]) was 4 µg/mL (≈ 13.4 µM). The MIC (Acinetobacter baumannii [45]) was 1 µg/mL (≈ 3.34 µM), the MIC (Escherichia coli [46]) was 0.5 µg/mL (≈ 1.67 µM) and the MIC (Pseudomonas aeruginosa [47]) was 1 µg/mL (≈ 3.34 µM). For the same compound, the MIC (Acinetobacter baumannii [48]) was 1 µg/mL (≈ 3.34 µM), the MIC (Klebsiella pneumoniae [49]) was 0.5 µg/mL (≈ 1.67 µM) and the MIC (Acinetobacter baumannii [50]) was 0.5 µg/mL (≈ 1.67 µM). It also gave an MIC (Pseudomonas aeruginosa [51]) of 2 µg/mL (≈ 6.68 µM), an MIC (Escherichia coli [52]) of 0.5 µg/mL (≈ 1.67 µM) and an MIC (Acinetobacter baumannii [53]) of 8 µg/mL (≈ 26.7 µM).
